Assay results taken from ChEMBL document CHEMBL3792317, “Novel tetrazoloquinoline-rhodanine conjugates: Highly efficient synthesis and biological evaluation” (Bioorg Med Chem Lett, 2016).
In brackets after ≈: the same amount, converted by molar mass. Activity calls are given as the source filed them. The rule behind the calls is not given here.

Tests used:
[1] = test system: Mycobacterium tuberculosis; assay: Antitubercular activity against Mycobacterium tuberculosis H37Ra ATCC 25177 incubated for 40 mins by XTT Reduction Menadione Assay; format: functional; settings: H37Ra ATCC 25177, 40 min
[2] = Antitubercular activity against Mycobacterium bovis BCG ATCC 35743 incubated for 40 mins by XTT Reduction Menadione Assay; format: functional, Mycobacterium bovis BCG str. ATCC 35743; settings: Mycobacterium tuberculosis variant bovis BCG, ATCC 35743, 40 min
Candida albicans = assay: Antifungal activity against Candida albicans NCIM 3471 after 48 hrs by agar cup plate method; format: functional; settings: NCIM 3471, 48 h
Fusarium oxysporum [3] = assay: Antifungal activity against Fusarium oxysporum NCIM 1332 after 48 hrs by agar cup plate method; format: functional; settings: NCIM 1332, 48 h
Aspergillus flavus = assay: Antifungal activity against Aspergillus flavus NCIM 539 after 48 hrs by agar cup plate method; format: functional; settings: NCIM 539, 48 h
Aspergillus niger = assay: Antifungal activity against Aspergillus niger NCIM 1196 after 48 hrs by agar cup plate method; format: functional; settings: NCIM 1196, 48 h
Cryptococcus neoformans = assay: Antifungal activity against Cryptococcus neoformans NCIM 576 after 48 hrs by agar cup plate method; format: functional; settings: NCIM 576, 48 h
[4] = test system: Mycobacterium tuberculosis; assay: Antitubercular activity against Mycobacterium tuberculosis H37Ra ATCC 25177 at 30 ug/ml incubated for 40 mins by XTT Reduction Menadione Assay; format: functional; settings: H37Ra ATCC 25177, 40 min, read-out: GI
[5] = test system: Mycobacterium tuberculosis; assay: Antitubercular activity against Mycobacterium tuberculosis H37Ra ATCC 25177 at 10 ug/ml incubated for 40 mins by XTT Reduction Menadione Assay; format: functional; settings: H37Ra ATCC 25177, 40 min, read-out: GI
[6] = test system: Mycobacterium tuberculosis; assay: Antitubercular activity against Mycobacterium tuberculosis H37Ra ATCC 25177 at 3 ug/ml incubated for 40 mins by XTT Reduction Menadione Assay; format: functional; settings: H37Ra ATCC 25177, 40 min, read-out: GI
[7] = test system: Mycobacterium bovis BCG str. ATCC 35743; assay: Antitubercular activity against dormant Mycobacterium bovis BCG ATCC 35743 at 30 ug/ml incubated for 40 mins by XTT Reduction Menadione Assay; format: functional
[8] = test system: Mycobacterium bovis BCG str. ATCC 35743; assay: Antitubercular activity against dormant Mycobacterium bovis BCG ATCC 35743 at 10 ug/ml incubated for 40 mins by XTT Reduction Menadione Assay; format: functional
[9] = test system: Mycobacterium bovis BCG str. ATCC 35743; assay: Antitubercular activity against dormant Mycobacterium bovis BCG ATCC 35743 at 3 ug/ml incubated for 40 mins by XTT Reduction Menadione Assay; format: functional
[10] = test system: Mycobacterium tuberculosis; assay: Antitubercular activity against dormant Mycobacterium tuberculosis H37Ra ATCC 25177 incubated for 40 mins by XTT Reduction Menadione Assay; format: functional; settings: H37Ra ATCC 25177, 40 min
[11] = test system: Mycobacterium tuberculosis; assay: Antitubercular activity against active Mycobacterium tuberculosis H37Ra ATCC 25177 incubated for 40 mins by XTT Reduction Menadione Assay; format: functional; settings: H37Ra ATCC 25177, 40 min
[12] = test system: Mycobacterium bovis BCG str. ATCC 35743; assay: Antitubercular activity against dormant Mycobacterium bovis BCG ATCC 35743 incubated for 40 mins by XTT Reduction Menadione Assay; format: functional
[13] = test system: Mycobacterium bovis BCG str. ATCC 35743; assay: Antitubercular activity against active Mycobacterium bovis BCG ATCC 35743 incubated for 40 mins by XTT Reduction Menadione Assay; format: functional
Escherichia coli = assay: Antibacterial activity against Escherichia coli after 18 hrs by broth dilution method; format: functional
Pseudomonas fluorescens = assay: Antibacterial activity against Pseudomonas fluorescens after 18 hrs by broth dilution method; format: functional
Staphylococcus aureus = assay: Antibacterial activity against Staphylococcus aureus after 18 hrs by broth dilution method; format: functional
Bacillus subtilis = assay: Antibacterial activity against Bacillus subtilis after 18 hrs by broth dilution method; format: functional
[14] = (§1) Cytotoxicity against human HeLa cells after 48 hrs by MTT assay; format: cell-based; settings: HeLa cells
HeLa = assay: as §1; format: cell-based; settings: hela, 48 h
[15] = Cytotoxicity against human PANC1 cells after 48 hrs by MTT assay; format: cell-based, PANC-1; settings: for GI50 at 48 h: PANC1 cells; for GI90: panc-1, 48 h
[16] = (§2) Cytotoxicity against human A549 cells after 48 hrs by MTT assay; format: cell-based; settings: A549 cells
A549 = assay: as §2; format: cell-based; settings: a549, 48 h
[17] = Cytotoxicity against human THP1 cells after 48 hrs by MTT assay; format: cell-based, THP-1; settings: for GI50 at 48 h: THP1 cells; for GI90: thp-1, 48 h
[18] = Selectivity index, ratio of GI50 for human HeLa cells to MIC for Mycobacterium tuberculosis H37Ra ATCC 25177; format: toxicity, cell-based; settings: read-out: Selectivity Index
[19] = Selectivity index, ratio of GI50 for human HeLa cells to MIC for Mycobacterium bovis BCG ATCC 35743; format: toxicity, cell-based; settings: read-out: Selectivity Index
[20] = Selectivity index, ratio of GI50 for human PANC1 cells to MIC for Mycobacterium tuberculosis H37Ra ATCC 25177; format: toxicity, cell-based, PANC-1; settings: read-out: Selectivity Index
[21] = Selectivity index, ratio of GI50 for human PANC1 cells to MIC for Mycobacterium bovis BCG ATCC 35743; format: toxicity, cell-based, PANC-1; settings: read-out: Selectivity Index
[22] = Selectivity index, ratio of GI50 for human A549 cells to MIC for Mycobacterium tuberculosis H37Ra ATCC 25177; format: toxicity, cell-based; settings: read-out: Selectivity Index
[23] = Selectivity index, ratio of GI50 for human A549 cells to MIC for Mycobacterium bovis BCG ATCC 35743; format: toxicity, cell-based; settings: read-out: Selectivity Index
[24] = Selectivity index, ratio of GI50 for human THP1 cells to MIC for Mycobacterium tuberculosis H37Ra ATCC 25177; format: toxicity, cell-based, THP-1; settings: read-out: Selectivity Index
[25] = Selectivity index, ratio of GI50 for human THP1 cells to MIC for Mycobacterium bovis BCG ATCC 35743; format: toxicity, cell-based, THP-1; settings: read-out: Selectivity Index
Fusarium oxysporum [26] = assay: Antifungal activity against Fusarium oxysporum NCIM 1332 up to 200 ug/ml after 48 hrs by agar cup plate method; format: functional, organism-based

Compound | MIC [1] | MIC [2] | MIC (Candida albicans) | MIC (Aspergillus flavus) | MIC (Aspergillus niger) | MIC (Cryptococcus neoformans) | inhibition of growth at 30 µg/mL [4] | inhibition of growth at 10 µg/mL [5] | inhibition of growth at 3 µg/mL [6] | growth inhibition (GI) [7] | growth inhibition (GI) [8] | growth inhibition (GI) [9] | IC90 [10] | IC90 [11] | GI50 at 48 h [14] | GI90 (HeLa) | GI50 at 48 h [15] | GI90 [15] | GI50 at 48 h [16] | GI90 (A549) | also measured
Cc1ccc2cc(/C=C3\SC(=S)NC3=O)c3nnnn3c2c1 | 4.5 µg/mL (≈ 13.7 µM) | 2.01 µg/mL (≈ 6.14 µM) | 150 µg/mL (≈ 458 µM) | 125 µg/mL (≈ 382 µM) | 100 µg/mL (≈ 305 µM) | 100 µg/mL (≈ 305 µM) | 98% | 99.7% | 82.9% | 97.8% | 100% | 100% | 4.5 µg/mL (≈ 13.7 µM) | 5.5 µg/mL (≈ 16.8 µM) | > 100 µg/mL | > 100 µg/mL | > 100 µg/mL | > 100 µg/mL | > 100 µg/mL | > 100 µg/mL | MIC (Fusarium oxysporum [3]): 150 µg/mL (≈ 458 µM); IC90 [12]: 2.01 µg/mL (≈ 6.14 µM); IC90 [13]: 2.25 µg/mL (≈ 6.87 µM); MIC (Escherichia coli): 208 µg/mL (≈ 636 µM); MIC (Pseudomonas fluorescens): 211 µg/mL (≈ 643 µM); MIC (Staphylococcus aureus): 205 µg/mL (≈ 626 µM); MIC (Bacillus subtilis): 188 µg/mL (≈ 574 µM); GI50 at 48 h [17]: > 100 µg/mL; GI90 [17]: > 100 µg/mL; selectivity ratio [18]: 22.2; selectivity ratio [19]: 49.8; selectivity ratio [20]: 22.2; selectivity ratio [21]: 49.8; selectivity ratio [22]: 22.2; selectivity ratio [23]: 49.8; selectivity ratio [24]: 22.2; selectivity ratio [25]: 49.8
COc1ccc2cc(/C=C3\SC(=S)N(CC(=O)O)C3=O)c3nnnn3c2c1 | 92.3 µg/mL (≈ 230 µM) | 121 µg/mL (≈ 302 µM) | 100 µg/mL (≈ 249 µM) | 150 µg/mL (≈ 374 µM) | 150 µg/mL (≈ 374 µM) | 175 µg/mL (≈ 436 µM) | 97.2% | 13.6% | 3.59% | 25.6% | 37.3% | 12.7% | 92.3 µg/mL (≈ 230 µM) | 159 µg/mL (≈ 396 µM) | > 100 µg/mL | > 100 µg/mL | > 100 µg/mL | > 100 µg/mL | > 100 µg/mL | > 100 µg/mL | MIC (Fusarium oxysporum [26]): inactive; GI50 at 48 h [17]: > 100 µg/mL; GI90 [17]: > 100 µg/mL; selectivity ratio [18]: 1.1; selectivity ratio [19]: 4.13; selectivity ratio [20]: 1.1; selectivity ratio [21]: 4.13; selectivity ratio [22]: 1.1; selectivity ratio [23]: 4.13; selectivity ratio [24]: 1.1; selectivity ratio [25]: 4.13
Cc1ccc2cc(/C=C3\SC(=S)N(CCC(=O)O)C3=O)c3nnnn3c2c1 | 42.2 µg/mL (≈ 106 µM) | 45.4 µg/mL (≈ 114 µM) | 25 µg/mL (≈ 62.6 µM) | 50 µg/mL (≈ 125 µM) | 100 µg/mL (≈ 250 µM) | 50 µg/mL (≈ 125 µM) | 60.3% | 30% | 16.6% | 41.2% | 12.3% | 4.55% | 42.2 µg/mL (≈ 106 µM) | 45 µg/mL (≈ 113 µM) | > 100 µg/mL | > 100 µg/mL | > 100 µg/mL | > 100 µg/mL | > 100 µg/mL | > 100 µg/mL | MIC (Fusarium oxysporum [3]): 50 µg/mL (≈ 125 µM); IC90 [12]: 45.4 µg/mL (≈ 114 µM); GI50 at 48 h [17]: > 100 µg/mL; GI90 [17]: > 100 µg/mL
COc1ccc2c(c1)cc(/C=C1\SC(=S)NC1=O)c1nnnn12 | > 250 µg/mL | > 250 µg/mL | 150 µg/mL (≈ 437 µM) | 150 µg/mL (≈ 437 µM) | 100 µg/mL (≈ 291 µM) | 150 µg/mL (≈ 437 µM) | -5.72% | 17.6% | 18.9% | 32.5% | 17.1% | 12.5% | – | – | – | – | – | – | – | – | MIC (Fusarium oxysporum [26]): inactive; MIC (Escherichia coli): 198 µg/mL (≈ 577 µM); MIC (Pseudomonas fluorescens): 169 µg/mL (≈ 493 µM); MIC (Staphylococcus aureus): 144 µg/mL (≈ 419 µM); MIC (Bacillus subtilis): 96.8 µg/mL (≈ 282 µM)
